Assay results reported in patent publication US6229055A, “Synthesis of fluorinated xanthene derivatives” (Molecular Probes, Inc., priority 2000, dated 2001).

What was measured:
[1] = Photodecomposition on illumination in fluorometer; format: physicochemical; conditions: % of decreased fluorescence intensity after 33 minutes of illumination in fluorometer at wavelength of maximum excitation
Procedure: *% of decreased fluorescence intensity after 33 minutes of illumination in
fluorometer at wavelength of maximum excitation

[2] = Spectral properties of selected fluorinated fluoresceins and rhodols; format: physicochemical; conditions: for Abs.: absorption maximum; for Em.: emission maximum; for ε × 10^-3: extinction coefficient, value is ε × 10^-3; for Quantum Yield: fluorescence quantum yield
[3] = pH titration of fluorophores (pKa)
Procedure: The dye of interest is first dissolved in a series of buffers that have each been calibrated using a pH meter. Acetate buffers are typically used in the range of pH 46, and phosphate buffers in the pH range 68. Absorption measurements are made using solutions that are approximately 10 1M in concentration, and fluorescence measurements are made using solutions that are approximately 1 μM in concentration. The absorption or emission data is then plotted versus pH to determine pKa values.

[4] = system: rabbit polyclonal anti-fluorescein IgG (H+L) fraction; assay: Fluorescence quenching by anti-fluorescein antibody; format: binding; conditions: 5×10^-9 M dye
Procedure: Solutions of 5×10^-9 M fluorescein and 5×10^-9 M 2',7'-difluorofluorescein (Compound 29) are prepared in 100 mM potassium phosphate buffer, pH 8.0. The fluorescence of each solution is read with excitation at 490 nm. Sequential additions of 0.5 mg/mL rabbit polyclonal anti-fluorescein IgG (H+L) fraction (Molecular Probes, Inc.) are added and the fluorescence measurements are repeated.

[5] = system: ATP-dependent dye efflux mechanisms in lymphoid-B cell lines; assay: Dye efflux from labeled cells with and without verapamil or probenecid, flow cytometry; format: cell-based
Procedure: Identical batches of lymphoid-B cell lines cells are separately incubated with […] solutions of 4,5,6,7-tetrafluorofluorescein diacetate (Compound 25), 2',7'-dichloro4,5,6,7-tetrafluorofluorescein diacetate (Compound 28), 2',4,5,6,7,7'-hexafluorofluorescein diacetate ([…]) and 2',4',5',7'-tetrafluorofluorescein diacetate. To one set of each cells is added 100 μM verapamil and to another 1 mM probenecid, both of which are known to block ATP-dependent dye efflux mechanisms, as found in multidrug resistant of cells. Without washing, the cells are analyzed for brightness by flow cytometry using 488-nm excitation.

[6] = antibody volume 0 μL, pH 8.0, excitation 490 nm
[7] = antibody volume 2 μL of 0.5 mg/mL, pH 8.0
[8] = antibody volume 4 μL of 0.5 mg/mL, pH 8.0
[9] = antibody volume 6 μL of 0.5 mg/mL, pH 8.0
[10] = antibody volume 8 μL of 0.5 mg/mL, pH 8.0
[11] = antibody volume 10 μL of 0.5 mg/mL, pH 8.0
[12] = antibody volume 12 μL of 0.5 mg/mL, pH 8.0
[13] = antibody volume 15 μL of 0.5 mg/mL, pH 8.0
[14] = given in the synthesis examples
[15] = approximate, from fluorescence emission versus pH (FIG. 3), in water

photodecomposition [1] [%] | Abs. [2] [nm] | Em. [2] [nm] | ε × 10^-3 [2] [cm^-1 M^-1] | Quantum Yield [2] | Compound | pKa ([3]; Table 1) | further results
4.0 | 495 | 518 | – | – | 5-(and-6)-carboxy-2'-fluororhodol [Compound 55] | 3.8 | –
11 | 510 | 534 | 84.2 | 0.43 | 5-(and-6)-carboxy-4',5'-difluorofluorescein [Compound 41] | 5.2 | –
6.0 | 510 | 533 | 81.3 | 0.59 | 5-(and-6)-carboxy-2',4',5',7'-tetrafluorofluorescein [Compound 40] | 3.7 | –
– | 503 | 522 | 77.5 | 0.053 | Nc1c(F)c(F)c2c(c1F)C1(OC2=O)c2ccc(O)cc2Oc2cc(O)ccc21 [Compound 68, 6-amino-4,5,7-trifluorofluorescein] | – | –
– | 507 | 527 | 79.9 | 0.92 | [N-]=[N+]=Nc1c(F)c(F)c2c(c1F)C1(OC2=O)c2ccc(O)cc2Oc2cc(O)ccc21 [Compound 78, 6-azido-4,5,7-trifluorofluorescein] | – | –
4.0 | 494 | 521 | 69.6 | 0.89 | 5-(and-6)-carboxyrhodol [reference compound] | 5.6 | –
– | 518 | 544 | – | 0.26 | 5-(and-6)-carboxy-N,N-dimethylrhodol [reference compound] | – | –
– | 507 | 526 | 87.5 | 0.86 | O=C(O)CSc1c(F)c(F)c2c(c1F)C1(OC2=O)c2cc(F)c(O)cc2Oc2cc(O)c(F)cc21 [Compound 59, 6-carboxymethylthio-2',4,5,7,7'-pentafluorofluorescein] | – | –
5.0 | 520 | 546 | – | – | 5-(and-6)-carboxy-N,N-dimethyl-7'-fluororhodol | 5.3 | –
– | 504 | 530 | 80.3 | 0.75 | 5-(and-6)-carboxy-2',7'-dichlorofluorescein [reference compound] | – | –

The remaining lines, values behind:

Compound | photodecomposition [1] [%] | Abs. [2] [nm] | Em. [2] [nm] | ε × 10^-3 [2] [cm^-1 M^-1] | Quantum Yield [2] | pKa ([3]; Table 1) | further results
5-(and-6)-carboxy-7'-fluororhodol | 4.0 | 494 | 519 | – | – | 5.2 | –
O=C1OC2(c3ccc(O)cc3Oc3cc(O)ccc32)c2ccccc21 [fluorescein, reference compound] | 17 | 490 | 514 | 82.2 | 0.92 | 6.5 | Fluorescence Intensity [4, 6]: 100%; Fluorescence Intensity [4, 7]: 84.6%; Fluorescence Intensity [4, 8]: 68.8%; Fluorescence Intensity [4, 9]: 54.3%; Fluorescence Intensity [4, 10]: 38.5%; Fluorescence Intensity [4, 11]: 22.9%; Fluorescence Intensity [4, 12]: 11.7%; Fluorescence Intensity [4, 13]: 4.4%
O=C1OC2(c3cc(F)c(O)cc3Oc3cc(O)c(F)cc32)c2c(F)c(F)c(F)c(F)c21 [Compound 26, 2',4,5,6,7,7'-hexafluorofluorescein] | 4.0 | 508 | 527 | 81.2 | 0.96 | 4.8 | –
O=c1c(F)c2oc3c(F)c(O)c(F)c(F)c3c(-c3c(F)c(F)c(F)c(F)c3F)c-2c(F)c1F [Compound 50, 1,2,4,5,7,8-hexafluoro-6-hydroxy-9-pentafluorophenylxanthen-3-one] | 4.0 | – | – | – | 0.11 | 2.8 | –
CN(C)c1ccc2c(c1)Oc1cc(O)c(F)cc1C21OC(=O)c2ccccc21 (stereo not shown) [Compound 51, 2'-fluoro-N,N-dimethylrhodol] | – | – | – | – | – | – | pKa [3, 14]: 4.2
CC(=O)Oc1cc2c(cc1Cl)C1(OC(=O)c3c(F)c(F)c(F)c(F)c31)c1cc(Cl)c(OC(C)=O)cc1O2 [Compound 28, 2',7'-dichloro4,5,6,7-tetrafluorofluorescein Diacetate] | – | – | – | – | – | – | Mean Fluorescence intensity of labeled cells ([5]; 100 μM verapamil): 110; Mean Fluorescence intensity of labeled cells ([5]; 1 mM Probenecid): 80.6; Mean Fluorescence intensity of labeled cells ([5]; No drug): 15.6
O=C1OC2(c3cc(Cl)c(O)cc3Oc3cc(O)c(Cl)cc32)c2ccccc21 [2',7'-dichlorofluorescein, reference compound] | – | – | – | – | – | 5.1 | pKa [3, 15]: ~ 5.1
Nc1cc2c(cc1F)C1(OC(=O)c3ccccc31)c1ccc(O)cc1O2 (stereo not shown) [Compound 52, 7'-fluororhodol] | – | – | – | – | – | – | pKa [3, 14]: 5.2
5-(and-6)-carboxy-N,N-dimethyl-2'-fluororhodol | 5.0 | 519 | 553 | – | – | 4.2 | –
O=C1OC2(c3cc(F)c(O)cc3Oc3cc(O)c(F)cc32)c2ccccc21 [Compound 29, 2',7'-difluorofluorescein] | 8.0 | 490 | 513 | 84.7 | 0.97 | 4.7 | pKa [3, 15]: ~ 4.7; Fluorescence Intensity [4, 6]: 100%; Fluorescence Intensity [4, 7]: 83.6%; Fluorescence Intensity [4, 8]: 67.3%; Fluorescence Intensity [4, 9]: 51.9%; Fluorescence Intensity [4, 10]: 36.5%; Fluorescence Intensity [4, 11]: 23.8%; Fluorescence Intensity [4, 12]: 13.4%; Fluorescence Intensity [4, 13]: 6.3%
5-(and-6)-carboxy-2',7'-difluorofluorescein | 9.0 | 492 | 516 | 85.9 | 0.92 | 4.8 | –
CN(C)c1cc2c(cc1F)C1(OC(=O)c3ccccc31)c1ccc(O)cc1O2 (stereo not shown) [Compound 53, N,N-dimethyl-7'-fluororhodol] | – | – | – | – | – | – | pKa [3, 14]: 5.3
O=C(O)c1ccc(-c2c3cc(F)c(=O)cc-3oc3cc(O)c(F)cc23)c(S(=O)(=O)O)c1 [9-(4-carboxy-2-sulfo)-6-hydroxy-2,7-difluoro-3H-xanthene-3-one] | 7.3 | 497 | 517 | 83.8 | 0.92 | 4.3 | –
O=C1OC2(c3cc(Cl)c(O)cc3Oc3cc(O)c(Cl)cc32)c2c(F)c(F)c(F)c(F)c21 [Compound 37, 2',7'-dichloro4,5,6,7-tetrafluorofluorescein] | 3.0 | 520 | 538 | 88.5 | 0.80 | 4.2 | –
Nc1ccc2c(c1)Oc1cc(O)c(F)cc1C21OC(=O)c2ccccc21 (stereo not shown) [Compound 54, 2'-fluororhodol] | – | – | – | – | – | – | pKa [3, 14]: 3.8
O=C(O)CSc1c(F)c(F)c2c(c1F)C1(OC2=O)c2ccc(O)cc2Oc2cc(O)ccc21 [Compound 58, 6-carboxymethylthio-4,5,7-trifluorofluorescein] | 5.0 | 507 | 526 | 63.5 | 0.88 | 4.5 | –
